Experiments:
Assay in all cases: relative viability (nuclei count vs DMSO), 5 days (fraction); higher = more cells survive
[1] = compound: Cn1cc(-c2cnn3c(N)c(Br)c([C@@H]4CCCNC4)nc23)cn1 + O=C(c1cc(Cc2n[nH]c(=O)c3ccccc23)ccc1F)N1CCN(C(=O)C2CC2)CC1 [Olaparib] (partner 8 µM)
Procedure, shortened: (§1)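 Lung cancer cell lines in 1536-well plates were dosed by pin tool the day after seeding, either with one drug alone or with a fixed anchor-drug dose plus five library-drug doses (not always all listed) in √10 steps. After 5 days, cells were fixed and their nuclei stained in one step (final 0.05% Triton X-100, 1% formaldehyde, 1 ug/ml Hoechst), then counted on 4× images. Relative viability is the nuclei count in treated wells divided by that in vehicle wells. Values are medians of duplicate plates.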

[2] = compound: Cn1cc(-c2cnn3c(N)c(Br)c([C@@H]4CCCNC4)nc23)cn1 + CC(C)C[C@H](NC(=O)[C@H](Cc1ccccc1)NC(=O)c1cnccn1)B(O)O [Bortezomib] (partner 0.002 µM)
Procedure, shortened: as §1

[3] = compound: Cn1cc(-c2cnn3c(N)c(Br)c([C@@H]4CCCNC4)nc23)cn1 + CC(=O)Nc1cccc(-n2c(=O)n(C3CC3)c(=O)c3c(Nc4ccc(I)cc4F)n(C)c(=O)c(C)c32)c1 [Trametinib] (partner 0.02 µM)
Procedure, shortened: as §1

[4] = compound: Cn1cc(-c2cnn3c(N)c(Br)c([C@@H]4CCCNC4)nc23)cn1 + CS(=O)(=O)N1CCN(Cc2cc3nc(-c4cccc5[nH]ncc45)nc(N4CCOCC4)c3s2)CC1 [Pictilisib] (partner 1 µM)
Procedure, shortened: as §1

| Cell Line | relative viability ([1]; first compound 0.05 µM) | relative viability ([1]; first compound 0.1581 µM) | relative viability ([1]; first compound 0.5 µM) | relative viability ([1]; first compound 1.581 µM) | relative viability ([1]; first compound 5 µM) | relative viability ([2]; first compound 0.05 µM) | relative viability ([2]; first compound 0.1581 µM) | relative viability ([2]; first compound 0.5 µM) | relative viability ([2]; first compound 1.581 µM) | relative viability ([2]; first compound 5 µM) | relative viability ([3]; first compound 0.05 µM) | relative viability ([3]; first compound 0.1581 µM) | relative viability ([3]; first compound 0.5 µM) | relative viability ([3]; first compound 1.581 µM) | relative viability ([3]; first compound 5 µM) | relative viability ([4]; first compound 0.05 µM) | relative viability ([4]; first compound 0.1581 µM) | relative viability ([4]; first compound 0.5 µM) | relative viability ([4]; first compound 1.581 µM) | relative viability ([4]; first compound 5 µM) |
| --- | --- | --- | --- | --- | --- | --- | --- | --- | --- | --- | --- | --- | --- | --- | --- | --- | --- | --- | --- | --- |
| NCI-H1915 | 0.312 | 0.268 | 0.299 | 0.261 | 0.236 | 1.14 | 1.01 | 1.06 | 0.784 | 1.03 | 0.479 | 0.313 | 0.304 | 0.347 | 0.301 | 0.933 | 0.942 | 0.948 | 0.896 | 0.9 |
| NCI-H1975 | 0.841 | 0.792 | 0.7 | 0.581 | 0.708 | 0.444 | 0.403 | 0.296 | 0.32 | 0.31 | 0.356 | 0.328 | 0.326 | 0.331 | 0.239 | 0.308 | 0.264 | 0.308 | 0.222 | 0.248 |
| NCI-H1993 | 0.959 | 1.05 | 1.01 | 0.969 | 1.1 | 1.09 | 1.16 |  | 0.931 | 0.846 | 0.518 | 0.467 | 0.643 | 0.435 | 0.511 | 0.816 | 0.789 |  | 0.819 | 0.686 |
| NCI-H2009 | 0.685 | 0.749 | 0.714 | 0.872 | 0.595 | 1.01 | 1.06 | 0.972 | 0.834 | 0.826 | 0.272 | 0.284 | 0.271 | 0.252 | 0.224 | 0.712 | 0.873 | 0.714 | 0.517 | 0.552 |
| NCI-H2023 | 0.473 | 0.336 | 0.253 | 0.253 | 0.139 | 1.04 | 0.923 | 0.733 | 0.235 | 0.147 | 0.606 | 0.336 | 0.416 | 0.227 | 0.185 | 0.268 | 0.226 | 0.194 | 0.143 | 0.11 |
| NCI-H2085 | 0.813 | 0.849 | 0.776 | 0.762 | 0.752 | 1.12 | 1.13 | 1.08 | 0.813 | 0.909 | 0.532 | 0.664 | 0.548 | 0.484 | 0.287 | 0.508 | 0.441 | 0.57 | 0.403 | 0.469 |
| NCI-H2087 | 0.766 | 0.735 | 0.623 | 0.624 | 0.676 | 0.893 | 0.876 | 0.872 | 0.622 | 0.911 | 0.151 | 0.203 | 0.178 | 0.164 | 0.189 | 0.821 | 1 | 0.95 | 0.852 | 0.803 |
| NCI-H2126 | 0.965 | 0.923 | 0.887 | 0.792 | 0.923 | 1.1 | 1.22 | 1.15 | 1.02 | 1.14 | 0.628 | 0.549 | 0.548 | 0.561 | 0.597 | 0.462 | 0.519 | 0.512 | 0.52 | 0.524 |

— the supplement of paper PMC10307832
